Data from ChEMBL document CHEMBL4477199, “Design and synthesis of novel bicalutamide and enzalutamide derivatives as antiproliferative agents for the treatment of prostate cancer” (Eur J Med Chem, 2016).

What was measured:
CWR22R [1] = assay: Antiproliferative activity against human 22Rv1 cells after 96 hrs by propidium iodide staining based fluorescence 2D monolayer assay; format: functional, cell-based; conditions: 22Rv1, 96 h
[2] = 33000 µM
Description: Solubility in 100% DMSO at 33 mM at -20 degC

DU-145 [3] = assay: Antiproliferative activity against human DU145 cells after 96 hrs by propidium iodide staining based fluorescence 2D monolayer assay; format: functional, cell-based; conditions: DU-145, 96 h
LNCaP [4] = assay: Antiproliferative activity against human LNCAP cells after 96 hrs by propidium iodide staining based fluorescence 2D monolayer assay; format: functional, cell-based
[5] = target: T1, Androgen receptor (Rattus norvegicus) (UniProt P15207); assay: (§1) Antagonist activity at rat androgen receptor fused with DNA-binding domain of GAL4 expressed in AR-UAS-bla GripTite 293 cells assessed as inhibition of R1881-induced receptor activation preincubated for 30 mins followed by R1881 addition measured after 16 to 24 hrs by betalactamase reporter gene assay; format: cell-based
T1 sequence (whole entry): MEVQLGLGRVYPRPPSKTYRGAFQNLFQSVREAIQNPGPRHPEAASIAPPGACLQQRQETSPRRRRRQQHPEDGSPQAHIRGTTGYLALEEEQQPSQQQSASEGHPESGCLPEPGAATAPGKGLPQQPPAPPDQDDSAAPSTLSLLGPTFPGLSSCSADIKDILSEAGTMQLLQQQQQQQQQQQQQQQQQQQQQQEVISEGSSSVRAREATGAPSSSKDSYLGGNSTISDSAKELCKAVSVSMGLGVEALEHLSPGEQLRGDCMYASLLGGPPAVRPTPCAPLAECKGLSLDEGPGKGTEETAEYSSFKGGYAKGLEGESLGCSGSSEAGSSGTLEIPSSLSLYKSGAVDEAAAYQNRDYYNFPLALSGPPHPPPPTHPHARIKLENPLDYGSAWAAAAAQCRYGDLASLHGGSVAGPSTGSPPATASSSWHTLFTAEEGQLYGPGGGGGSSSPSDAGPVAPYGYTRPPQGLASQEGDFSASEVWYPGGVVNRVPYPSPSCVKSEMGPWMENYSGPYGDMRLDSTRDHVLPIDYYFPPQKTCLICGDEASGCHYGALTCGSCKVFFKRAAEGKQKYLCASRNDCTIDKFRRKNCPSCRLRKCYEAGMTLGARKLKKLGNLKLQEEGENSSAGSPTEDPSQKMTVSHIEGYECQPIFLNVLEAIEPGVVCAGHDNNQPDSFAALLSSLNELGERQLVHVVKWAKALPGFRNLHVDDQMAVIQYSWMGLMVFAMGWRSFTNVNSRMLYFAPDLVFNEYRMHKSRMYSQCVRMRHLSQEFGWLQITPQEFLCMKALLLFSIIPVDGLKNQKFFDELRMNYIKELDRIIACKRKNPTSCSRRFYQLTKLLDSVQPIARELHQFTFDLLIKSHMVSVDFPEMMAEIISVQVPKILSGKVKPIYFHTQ

Androgen receptor = target: T2, Androgen receptor (Rattus norvegicus, UniProt P15207); assay: as §1; format: cell-based
T2 sequence (P15207 whole entry): T1 sequence (whole entry)

[6] = 96 h
Description: Solubility in RPMI1640 culture medium at <30 uM incubated for 4 days by microscopic analysis

VCaP [7] = assay: Antiproliferative activity against human VCaP cells after 96 hrs by propidium iodide staining based fluorescence 2D monolayer assay; format: functional, cell-based
[8] = Apparent permeability from basolateral to apical side in human Caco2 cells at 10 uM incubated for 120 mins by LC-MS/MS analysis; conditions: Caco-2
HepG2 = assay: Cytotoxicity against human HepG2 cells assessed as reduction in cell viability after 72 hrs by MTT assay; format: functional, cell-based; conditions: HepG2, 72 h; for minimal effective concentration: read-out: MEC
in vitro = conditions: human
[9] = Half life in human liver microsomes at 3 uM preincubated with compound followed by NADPH addition by LC-MS/MS analysis
[10] = Apparent permeability from apical to basolateral side in human Caco2 cells at 10 uM incubated for 120 mins by LC-MS/MS analysis; conditions: Caco-2
[11] = Efflux ratio of apparent permeability from basolateral to apical side over apical to basolateral side in human Caco2 cells at 10 uM incubated for 120 mins by LC-MS/MS analysis; conditions: Caco-2
DU-145 [12] = assay: Antiproliferative activity against human DU145 cells assessed as relative inhibition after 96 hrs by propidium iodide staining based fluorescence 2D monolayer assay; format: functional, cell-based; conditions: DU-145, 96 h
CWR22R [13] = assay: Antiproliferative activity against human 22Rv1 cells assessed as relative inhibition after 96 hrs by propidium iodide staining based fluorescence 2D monolayer assay; format: functional, cell-based; conditions: 22Rv1, 96 h
LNCaP [14] = assay: Antiproliferative activity against human LNCAP cells assessed as relative inhibition after 96 hrs by propidium iodide staining based fluorescence 2D monolayer assay; format: functional, cell-based
VCaP [15] = assay: Antiproliferative activity against human VCaP cells assessed as relative inhibition after 96 hrs by propidium iodide staining based fluorescence 2D monolayer assay; format: functional, cell-based

Structure (SMILES) | IC50 (CWR22R [1]) [µM] | solubility [2] | IC50 (DU-145 [3]) [µM] | IC50 (LNCaP [4]) [µM] | inhibition [5] | IC50 (Androgen receptor) [µM] | solubility [6] | IC50 (VCaP [7]) [µM] | other results
CC1(C)C(=O)N(c2cccc(C(F)(F)F)c2)C(=O)N1c1ccc([N+](=O)[O-])cc1C(F)(F)F | 5.01 | Soluble | 7.88 | 4.07 | Dose-dependent effect | 0.111 | Soluble | 13.3 | –
CC(O)(CSc1cccc(C(F)(F)F)c1)C(=O)Nc1ccc(C#N)c(C(F)(F)F)c1 (stereo unspecified) | 5.56 | Soluble | 10.6 | 5.03 | – | – | Soluble | 9.23 | Papp B→A at 2 h, 10 µM [8]: 4.73 ×10⁻⁶ cm/s; AC50 (HepG2): 36.6 µM; minimal effective concentration (HepG2): 18.4 µM; microsomal CLint at 3 µM (in vitro; microsomes): 232 µL/min/mg; half-life at 3 µM ([9]; microsomes): 5.97 min; Papp A→B at 2 h, 10 µM [10]: 3.92 ×10⁻⁶ cm/s; efflux ratio at 2 h, 10 µM [11]: 1.21
CC1(C)C(=O)N(c2cccc(C(F)(F)F)c2)C(=O)N1c1cccc(C(F)(F)F)c1 | 60.7 | Soluble | 100 | 5.61 | Dose-dependent effect | 0.123 | Soluble | 75.7 | –
CC(O)(CSc1ccccc1C(F)(F)F)C(=O)Nc1ccc(C#N)c(C(F)(F)F)c1 (stereo unspecified) | 5.06 | – | 7.73 | 4.91 | Dose-dependent effect | 0.425 | – | 7.51 | AC50 (HepG2): 25.8 µM; minimal effective concentration (HepG2): 14.7 µM; microsomal CLint at 3 µM (in vitro; liver microsomes): 379 µL/min/mg; half-life at 3 µM ([9]; liver microsomes): 3.66 min
O=C(Nc1ccc([N+](=O)[O-])c(C(F)(F)F)c1)C(O)(CSc1ccccc1C(F)(F)F)C(F)(F)F (stereo unspecified) | 1.28 | Soluble | 2.4 | 0.719 to 0.72 | Dose-dependent effect | 0.245 | Soluble | 2.78 | IC50 (DU-145 [12]): 2.36 µM; IC70 (DU-145 [12]): 2.7 µM; IC70 (CWR22R [1]): 1.7 µM; IC50 (CWR22R [13]): 1.27 µM; IC70 (CWR22R [13]): 1.65 µM; IC50 (LNCaP [14]): 0.828 µM; IC70 (LNCaP [14]): 1.33 µM; IC70 (DU-145 [3]): 2.76 µM; IC70 (LNCaP [4]): 1.2 µM; IC70 (VCaP [7]): 5.73 µM; IC50 (VCaP [15]): 2.43 µM; IC70 (VCaP [15]): 4.8 µM
CC(O)(COc1ccc(OC(F)(F)F)cc1)C(=O)Nc1ccc([N+](=O)[O-])c(C(F)(F)F)c1 (stereo unspecified) | 7.53 | Soluble | 10.4 | 17.7 | Dose-dependent effect | 0.625 | Soluble | 19.6 | –
CC(O)(CS(=O)(=O)c1ccc(OC(F)(F)F)cc1)C(=O)Nc1ccc([N+](=O)[O-])cc1C(F)(F)F (stereo unspecified) | ≥ 100 | Soluble | ≥ 100 | ≥ 100 | – | – | Soluble | ≥ 100 | IC50 (DU-145 [12]): > 100 µM; IC70 (DU-145 [12]): > 100 µM; IC70 (CWR22R [1]): > 100 µM; IC50 (CWR22R [13]): > 100 µM; IC70 (CWR22R [13]): > 100 µM; IC50 (LNCaP [14]): > 100 µM; IC70 (LNCaP [14]): > 100 µM; IC70 (DU-145 [3]): > 100 µM; IC70 (LNCaP [4]): > 100 µM; IC70 (VCaP [7]): > 100 µM; IC50 (VCaP [15]): > 100 µM; IC70 (VCaP [15]): > 100 µM
CC(O)(COc1cccc(OC(F)(F)F)c1)C(=O)Nc1ccc([N+](=O)[O-])c(C(F)(F)F)c1 (stereo unspecified) | 9.31 | Soluble | 13.1 | 9.95 | Dose-dependent effect | 0.407 | Soluble | 9.6 | –
CC(O)(COc1ccc(C#N)cc1C(F)(F)F)C(=O)Nc1ccc(C#N)cc1C(F)(F)F (stereo unspecified) | 18.4 | Soluble | 27.5 | 9.39 | Dose-dependent effect | 0.736 | Soluble | 17.7 | –
CC(O)(CSc1ccccc1OC(F)(F)F)C(=O)Nc1ccc([N+](=O)[O-])cc1C(F)(F)F (stereo unspecified) | 4.64 | Soluble | 6.57 to 6.58 | 3.31 | – | – | Soluble | 5.27 | IC50 (DU-145 [12]): 6.16 µM; IC70 (DU-145 [12]): 7.59 µM; IC70 (CWR22R [1]): 6.31 µM; IC50 (CWR22R [13]): 4.47 µM; IC70 (CWR22R [13]): 5.88 µM; IC50 (LNCaP [14]): 3.28 µM; IC70 (LNCaP [14]): 3.55 µM; IC70 (DU-145 [3]): 8.16 µM; IC70 (LNCaP [4]): 3.61 µM; IC70 (VCaP [7]): 13.8 µM; IC50 (VCaP [15]): 4.66 µM; IC70 (VCaP [15]): 9.39 µM
CC(O)(CSc1ccccc1C(F)(F)F)C(=O)Nc1ccc([N+](=O)[O-])cc1C(F)(F)F (stereo unspecified) | 12 | Soluble | 17.5 | 11.7 | Dose-dependent effect | 0.332 | Soluble | 12.8 | –
CC(O)(COc1ccccc1C(F)(F)F)C(=O)Nc1ccc([N+](=O)[O-])c(C(F)(F)F)c1 (stereo unspecified) | 20.2 | Soluble | 35.2 | 22.6 | Dose-dependent effect | 0.183 | Soluble | 27.2 | –
C[C@](O)(CSc1cccc(C(F)(F)F)c1)C(=O)Nc1ccc(C#N)c(C(F)(F)F)c1 | 13.1 | Soluble | 19.4 | 14.3 | – | – | Soluble | 8.91 | Papp B→A at 2 h, 10 µM [8]: 12.2 ×10⁻⁶ cm/s; AC50 (HepG2): 34.6 µM; minimal effective concentration (HepG2): 26.6 µM; microsomal CLint at 3 µM (in vitro; microsomes): 302 µL/min/mg; half-life at 3 µM ([9]; microsomes): 4.59 min; Papp A→B at 2 h, 10 µM [10]: 6.84 ×10⁻⁶ cm/s; efflux ratio at 2 h, 10 µM [11]: 1.78
CC(O)(CS(=O)(=O)c1ccc(F)cc1)C(=O)Nc1ccc(C#N)c(C(F)(F)F)c1 (stereo unspecified) [BICALUTAMIDE] | 49.6 | – | 49.2 | 45.3 | – | – | – | 68.4 | IC50 (DU-145 [12]): 46 µM; IC70 (DU-145 [12]): 58.3 µM; IC70 (CWR22R [1]): 65.1 µM; IC50 (CWR22R [13]): 48.5 µM; IC70 (CWR22R [13]): 64.1 µM; IC50 (LNCaP [14]): 47.3 µM; IC70 (LNCaP [14]): 60.9 µM; IC70 (DU-145 [3]): 61.3 µM; IC70 (LNCaP [4]): 59.1 µM; IC70 (VCaP [7]): > 100 µM; IC50 (VCaP [15]): 64.7 µM; IC70 (VCaP [15]): 97.3 µM
CC(C)NCC(O)COc1cccc2ccccc12 (stereo unspecified) [PROPRANOLOL] | – | – | – | – | – | – | – | – | Papp B→A at 2 h, 10 µM [8]: 41.6 ×10⁻⁶ cm/s; Papp A→B at 2 h, 10 µM [10]: 40.3 ×10⁻⁶ cm/s; efflux ratio at 2 h, 10 µM [11]: 1.03
CC(O)(COc1ccccc1OC(F)(F)F)C(=O)Nc1ccc([N+](=O)[O-])c(C(F)(F)F)c1 (stereo unspecified) | 6.6 | Soluble | 9.88 | 7.04 | Dose-dependent effect | 0.198 | Soluble | 9.61 | –
CC1(C)C(=O)N(c2ccc(C(F)(F)F)cc2)C(=O)N1c1ccc(C#N)cc1C(F)(F)F | 100 | Soluble | 100 | 8.36 | Dose-dependent effect | 0.402 | Soluble | 100 | –
CC1(C)C(=O)N(c2ccc(C(F)(F)F)cc2)C(=O)N1c1ccc([N+](=O)[O-])cc1C(F)(F)F | 16.4 | Soluble | 100 | 3.73 | Dose-dependent effect | 0.265 | Soluble | 100 | –
